According to patent publication US7385039B2, “Methods and compositions for regulating imidazoline receptors” (priority 1998, dated 2008):
“Also recorded” adds a separate entry of the source.

Legend:
[1] = system: I3R; experiment: I3R model: insulin release from rat islets of Langerhans; format: cell-based; conditions: for stimulation of insulin release (in words): rat islets
Procedure: Islets of Langerhans from male Wistar rats were isolated by collagenase digestion in a medium of bicarbonate-buffered physiological saline solution containing 4 mM D-glucose and 1 mM CaCl2. Islets were selected under a binocular dissecting microscope and were used within two hours of isolation. Islets from humans were isolated from heart-beating cadaver organ donors by collagenase digestion and density gradient centrifugation (Chan, S. L. F., et al., 1997, Brit. J. Pharmacol. 120:926-932).
Incubations were done in 96-well plates. Isolated islets were incubated in 100 μl buffer solution supplemented with bovine serum albumin in humidified air: CO2 (95:5%) at 37° C. in the presence of test agents. To eliminate any potential alpha-2 responses, yohimbine (10 μM), a potent alpha2-adrenergic blocker, was included in all incubations. After 60 min incubation, samples of medium were removed for measurement of insulin release by radioimmunoassay using anti-bovine insulin antiserum. Presence of insulin in the test media were compared to controls; positive differences represented amounts of insulin released. In reversal experiments, diazoxide (e.g., 200 μM) was pre-incubated to block glucose-induced insulin release. In these studies, test reagents were used to determine if they were capable of overcoming diazoxide's inhibitory effects on K+ ATP channels, a well known action of imidazoline secretagogues in islet cells. For example, efaroxan (an inhibitor of I-1 responses in adrenal medullary cells) is a well known I-3 agonist, i.e., it stimulates (at 100 μM) release of insulin and overcomes diazoxide inhibition thus illustrating again the dictomy between I1 and I3 receptor subtypes.
I3R model: Insulin release from pancreas (Eglen, R. M., Hudson, A. L., Kendall, D. A., Nutt, D. J., Morgan, N. G., Wilson, V. G. & Dillon, M. P. (1998) TIPS 19, 381-390; Chan, S. L. F. (1998) Gen. Pharmacol. 31, 525-529; Morgan, N. G. (1999) Exp. Opin. Invest. Drugs 8, 575-584). Islets of Langerhans from male Wistar rats or human pancreata were isolated by collagenase digestion. Hand-picked islets were incubated in NaHCO3-buffered saline containing 1 mM CaCl2, 1 mg/ml BSA and test reagents. After incubation, insulin levels in supernatants were analyzed by RIA. The I3-blocker, KU-14R, served to verify I3R function.

[2] = system: I1R; experiment: I1R model: [3H]arachidonic acid release from PC-12 cells; format: cell-based
Procedure: Assays for measuring imidazoline receptor-mediated arachidonic acid release from PC12 cells is as described in Ernsberger et al., (1995, FASEB J. 9:A114).
I1R model: [^3H]Arachidonic acid (AA) release from PC-12 cells. Assays (Emsberger, P. (1998) J. Auton. Nerv. Syst. 72, 147-154 Ernsberger, P. (1998) J. Auton. Nerv. Syst. 72, 147-154) were done after a 30 min washout to attain a stable background. Cells were superfused with 0.01% BSA in Krebs buffer for seven 1-min fractions (baseline), then treated with 10 μM or 100 μM I-4-AA-RP alone, or together with efaroxan (10 μM), a prototypical I1-antagonist/I3-agonist. Controls included baseline release with vehicle alone (0-7 min) or vehicle containing efaroxan (5 min) before adding I-4-AA-RP. [^3H]products (>98% AA) collected in each 1-min fraction were expressed as fractional release defined as % total radioactivity incorporated into cells, corrected for [^3H]AA previously released (Ernsberger, P. (1998) J. Auton. Nerv. Syst. 72, 147-154).

[3] = system: I3R; conditions: cited from earlier work
[4] = system: SH rats; experiment: Mean arterial pressure and heart rate after microinjection into the RVLM of rats; format: in vivo, rat
Procedure: Effects of ribotide on mean arterial pressure (MAP) and heart rate (HR). Bilateral I-4-AA-RP microinjections (60 nl, 100 nmol) into the RVLM of SH rats were performed (Emsberger, P. & Haxhiu, M. A. (1997) Am. J. Physiol. 273, R1572-R1579) after the sympatho-excitatory area was confirmed by showing glutamate-induced MAP elevation ≧30 mm Hg. MAP and HR values were measured every 5 min. After each experiment, the injection site was marked by infusion of rhodamine microspheres. Changes were assessed relative to baseline values by two-way repeated measures ANOVA and Dunnett's test. A second group of SH rats (injection controls) received vehicle injections to control for injection effects and for volume artifacts due to multiple injections. Vehicle contained 2 nmol rilmenidine, a sub-threshold dose, far below that known to cause any detectable effect (Gomez, R. E., Emsberger, P., Feinland, G. & Reis, D. J. (1991) Eur. J. Pharmacol. 195, 181-191). In a follow-up study, SH rats (N=6) were given I-4-AA-RP then moxonidine. When used alone, it reduces MAP to normotensive levels (Emsberger, P., Elliott, H. L., Weimann, H.-J., Raap, A., Haxhiu, M. A., Hofferber, E., Low-Kroger, A., Reid, J. L. & Mest, H. J. (1993) Cardiovas. Drug Rev. 11, 411-431).

[5] = target: Imidazoline I Sites; experiment: [125I]p-iodoclonidine competition binding to bovine RVLM membranes, imidazoline sites; conditions: bovine RVLM membranes, [125I]PIC; read-out: K1 in RVLM, parallel assays
Source text: Whole bovine brains and adrenal glands were obtained from a local slaughterhouse. Brains were immediately placed on a chilled glass plate, washed with ice-cold Krebs'-Henseleit buffer, and dissected. The rostral medulla was isolated by transecting the brainstem rostrally at the posterior margin of the trapezoid body and caudally 1 cm caudal to the obex. The pia-arachnoid was removed, and the lateral medulla was isolated by a sagittal section through the lateral margin of the pyramids, and then bisected. The ventral half was defined as the ventrolateral medulla (VLM). Brain samples were transported on ice to the laboratory and processed immediately.
Fresh bovine VLM was homogenized by using a polytron (Tekmar Tissuemizer, setting 80 for 2×15 sec) in 20 volumes of ice-cold Hepes-buffered isotonic sucrose (pH brought to 7.4 with Tris base) containing the protease inhibitors (1,10)-phenanthroline (100 μM) and phenylmethylsulfonyl fluoride (50 μM) in order to inhibit degradation of receptor protein. Bovine adrenomedullary cells were homogenized in 15 ml Hepes-buffered isotonic sucrose by 10 strokes in a glass-glass hand-held homogenizer. All three homogenates were centrifuged at 1000×g for 5 min at 4° C. to remove nuclei and debris. The pellets (P1) were resuspended in 20 ml of homogenization buffer, and centrifuged again at 1000×g for 5 min. The combined supernatants were centrifuged at 48,000 g for 18 min at 4° C., and the resulting P2 pellet was resuspended in 10 to 25 volumes of 50 mM Tris-HCl buffer (pH 7.7) containing 5 mM EDTA. After recentrifugation at 48,000 g for 18 min, the resulting membrane pellet was resuspended in Tris-HCl containing 25 mM NaCl, preincubated for 30 min at 25° C., chilled on ice, centrifuged again, resuspended a final time in Tris-HCl alone, centrifuged, flash-frozen, and stored at −70° C. for up to three months.
Radioligand binding assays with [^3H]clonidine or [^125I]p-iodoclonidine for determination of specific membrane binding to VLM and renal medulla imidazoline sites and α2-adrenergic receptors were performed by a modification of methods previously described (Ernsberger P. et al., 1997, J. Hypertension 1997, 15:S9-S23). Membranes were slowly thawed and resuspended in Tris-Hepes buffer (5.0 mM; pH 7.7 at 25° C., containing 0.5 mM EDTA, 0.5 mM EGTA, and 0.5 mM MgCl2) at a concentration of 1 mg protein/ml for the VLM, 4 mg protein/ml for the renal medulla, and 0.2 mg protein/ml for adrenomedullary cells. Assays were conducted in a total volume of 250 μl in polypropylene 96-well plates (Beckman Macrowell), and each well contained 125 μl membrane suspension, 25 μl radioligand, and 100 μl drug or vehicle. Incubations were initiated by the addition of membrane and were carried out for 30 min at 22° C. Nonspecific binding was defined in the presence of 10 μM BDF-6143, an imidazoline adrenergic agent. Specific α2-adrenergic binding was defined by inhibition with (−)epinephrine (0.1 mM). In experiments using catecholamines, all samples contained ascorbic acid in a final concentration of 0.001%. Incubations were terminated by vacuum filtration using a cell harvester (Brandel) equipped with Teflon tubing to reduce absorption of the radioligand over glass fiber filters (Schleicher & Schuell #34) which were preincubated for 4 h at 4° C. in 0.03% polyethylimine to reduce nonspecific binding to the filter. The filters were washed four times with 5 ml ice-cold Tris-HCl, placed in scintillation vials, covered with 4 ml scintillation cocktail (BioSafe II, Research Products International), and counted at 50% efficiency (Beckman LS5801). Protein was assayed by the bicinchoninic acid method.
Data were obtained as dpm and transferred to the Equilibrium Binding Data Analysis (EBDA) program for initial processing; 4 to 10 experiments were analyzed simultaneously by using the LIGAND program for nonlinear curve-fitting. Protein assay data were also analyzed by nonlinear curve-fitting.
Competition binding assays. […]

## O=C(O)Cc1cncn1[C@@H]1O[C@H](CO)[C@@H](O)[C@H]1O [pros-IAA-R, 1-(β-D-ribofuranosyl)-imidazole-5-acetic acid]
[1]
  reversal of the inhibitory action of diazoxide on glucose-induced insulin release: able to reverse the inhibitory action of diazoxide
  stimulation of insulin release (in words): effects similar to or even greater than that seen with tele IAA-RP

## CCC1(C2=NCCN2)Cc2ccccc2O1 (centres unmarked) [efaroxan, reference compound]
[2]; efaroxan 10 μM, before and throughout IAA-RP superfusion
  blockade of IAA-RP-induced [3H]AA release: abolished responses to IAA-RP; also recorded: blocked IAA-RP-induced release
[3]
  concentration of maximal stimulation of insulin release: ~100 µM

## CCC1(c2ncc[nH]2)Cc2ccccc2O1 (centres unmarked) [KU-14R, reference compound]
[1]; KU-14R 100 μM, IAA-RP 1 μM, diazoxide 200 μM
  blockade of IAA-RP-induced insulin secretion: abolished IAA-RP-induced secretion

## COc1nc(C)nc(Cl)c1N=C1NCCN1 [MOX, moxonidine, reference compound]
[4]; SH rats with IAA-RP-elevated MAP, 4 nmol, within 30 min
  lowering of MAP: 37.3±6.3%
[4]; SH rats, 4 nmol microinjected
  reversal of IAA-RP's hypertensive effect: completely reversed IAA-RP's effect

## O=C(O)Cc1cn([C@@H]2O[C@H](CO)[C@@H](O)[C@H]2O)cn1 [IAA-R, 1-(β-D-ribofuranosyl)-imidazole-4-acetic acid]
[5]
  Ki: 266 ± 48 µM
[2]; IAA-R 10 μM-1 mM
  stimulation of [3H]AA release (in words): no significant response
[1]
  reversal of the inhibitory action of diazoxide on glucose-induced insulin release: able to reverse the inhibitory action of diazoxide
  stimulation of insulin release (in words): potent stimulants of insulin release
[1]; paired experiment, pancreatic beta cells
  activity relative to IAA-RP's maximal activity on insulin release: < 50%
[4]; SH rats, 100 nmol into RVLM
  change of heart rate (HR): did not alter MAP or HR significantly
  effect on MAP (in words): did not alter MAP or HR significantly
